Laboratory results published in US20250382332A1, “NOVEL ALPHA-FACTOR BASED PEPTIDES WITH ANTIFUNGAL ACTIVITY” (INVAIO SCIENCES, INC., priority 2024, published 2025).
Peptide text beside a SMILES is read from it.

Test system: Botrytis cinerea (B05.10)
Test: Resazurin antifungal assay of 180 alpha-factor peptide variants towards Botrytis (Example 2)
Format: cell-based
Details: % inhibition of fungal growth, Botrytis conidia, resazurin; for Inhibition at 50 μM: peptide 50 μM; for Inhibition at 100 μM: peptide 100 μM; for Inhibition at 10 μM: peptide 10 μM; for Inhibition at 20 μM: peptide 20 μM; for Inhibition at 15 μM: peptide 15 μM
How it was run: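 Resazurin viability read-out (570/620 nm fluorescence) after a 24 h, 20° C incubation of B05.10 conidia, 5000 per well, with peptide at final 10-100 μM. Growth inhibition (%) was derived by subtracting conidia-only fluorescence; four replicates per treatment.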

| SMILES | Inhibition at 50 μM | Inhibition at 100 μM | Inhibition at 10 μM | Inhibition at 20 μM | Inhibition at 15 μM |
| --- | --- | --- | --- | --- | --- |
| CSCC[C@H](NC(=O)[C@@H]1CCCN1C(=O)[C@H](CCC(N)=O)NC(=O)CNC(=O)[C@@H]1CCCN1C(=O)[C@H](Cc1c[nH]cn1)NC(=O)[C@H](CC(C)C)NC(=O)[C@H](CCC(=O)O)NC(=O)[C@H](CC(C)C)NC(=O)CNC(=O)[C@H](CCC(N)=O)NC(=O)[C@@H](N)Cc1c[nH]c2ccccc12)C(=O)N[C@@H](Cc1ccc(O)cc1)C(=O)O [compound 129] (H-WQGLELHPGQPMY-OH; N-terminus and C-terminus assumed) | <90% | <90% | – | – | – |
| CC[C@H](C)[C@H](NC(=O)[C@H](CCC(=O)O)NC(=O)CNC(=O)[C@H](Cc1c[nH]c2ccccc12)NC(=O)[C@H](Cc1c[nH]cn1)NC(=O)[C@@H]1CCCN1)C(=O)N[C@@H](CCCCN)C(=O)N1CCC[C@H]1C(=O)NCC(=O)N[C@@H](CCC(N)=O)C(=O)N[C@@H](CO)C(=O)N[C@@H](CCSC)C(=O)N[C@@H](Cc1ccc(O)cc1)C(=O)O [compound 139] (H-PHWGEIKPGQSMY-OH; N-terminus and C-terminus assumed) | <90% | <90% | – | – | – |
| CC[C@H](C)[C@H](NC(=O)[C@H](CCCNC(=N)N)NC(=O)[C@H](CC(C)C)NC(=O)[C@H](Cc1c[nH]c2ccccc12)NC(=O)[C@H](CCC(N)=O)NC(=O)[C@@H](N)Cc1c[nH]c2ccccc12)C(=O)N[C@@H](CCCCN)C(=O)N[C@@H](CO)C(=O)NCC(=O)N[C@@H](CCC(N)=O)C(=O)NCC(=O)N[C@@H](CCSC)C(=O)N[C@@H](Cc1ccc(O)cc1)C(=O)O [compound 73] (H-WQWLRIKSGQGMY-OH; N-terminus and C-terminus assumed) | 100% | 100% | <90% | <90% | – |
| CC[C@H](C)[C@H](NC(=O)[C@H](CCCCN)NC(=O)[C@H](CC(C)C)NC(=O)[C@H](Cc1c[nH]c2ccccc12)NC(=O)[C@H](Cc1c[nH]cn1)NC(=O)[C@@H](N)Cc1c[nH]c2ccccc12)C(=O)N[C@@H](Cc1c[nH]c2ccccc12)C(=O)N1CCC[C@H]1C(=O)NCC(=O)N[C@@H](CCC(N)=O)C(=O)N1CCC[C@H]1C(=O)N[C@@H](CCSC)C(=O)N[C@@H](Cc1ccc(O)cc1)C(=O)O [compound 99] (H-WHWLKIWPGQPMY-OH; N-terminus and C-terminus assumed) | 94.66% | 100% | <90% | <90% | – |
| CC[C@H](C)[C@H](NC(=O)[C@H](CO)NC(=O)[C@H](CC(C)C)NC(=O)CNC(=O)[C@H](Cc1c[nH]cn1)NC(=O)[C@@H]1CCCN1)C(=O)N[C@@H](Cc1ccc(O)cc1)C(=O)N1CCC[C@H]1C(=O)NCC(=O)N[C@@H](CCC(N)=O)C(=O)N1CCC[C@H]1C(=O)N[C@@H](CCSC)C(=O)N[C@@H](Cc1ccc(O)cc1)C(=O)O [compound 142] (H-PHGLSIYPGQPMY-OH; N-terminus and C-terminus assumed) | <90% | <90% | – | – | – |
| CSCC[C@H](NC(=O)[C@@H]1CCCN1C(=O)[C@H](CCC(=O)O)NC(=O)CNC(=O)[C@H](CCCNC(=N)N)NC(=O)[C@H](CCC(N)=O)NC(=O)[C@H](CC(C)C)NC(=O)[C@H](CCC(N)=O)NC(=O)CNC(=O)[C@H](Cc1c[nH]c2ccccc12)NC(=O)[C@H](Cc1c[nH]cn1)NC(=O)[C@@H](N)Cc1c[nH]c2ccccc12)C(=O)N[C@@H](Cc1ccc(O)cc1)C(=O)O [compound 135] (H-WHWGQLQRGEPMY-OH; N-terminus and C-terminus assumed) | <90% | <90% | – | – | – |
| CC[C@H](C)[C@H](NC(=O)[C@H](CCC(N)=O)NC(=O)CNC(=O)[C@H](CCSC)NC(=O)[C@H](CO)NC(=O)[C@@H](N)Cc1c[nH]c2ccccc12)C(=O)N[C@@H](CCCCN)C(=O)N1CCC[C@H]1C(=O)NCC(=O)N[C@@H](CO)C(=O)N1CCC[C@H]1C(=O)N[C@@H](CCSC)C(=O)N[C@@H](Cc1ccc(O)cc1)C(=O)O [compound 120] (H-WSMGQIKPGSPMY-OH; N-terminus and C-terminus assumed) | <90% | <90% | – | – | – |
| CSCC[C@H](NC(=O)[C@@H]1CCCN1C(=O)[C@H](CCC(N)=O)NC(=O)CNC(=O)[C@@H]1CCCN1C(=O)[C@H](CC(N)=O)NC(=O)[C@H](CC(C)C)NC(=O)[C@H](CCCNC(=N)N)NC(=O)[C@H](CC(C)C)NC(=O)[C@H](Cc1c[nH]c2ccccc12)NC(=O)[C@H](Cc1c[nH]cn1)NC(=O)[C@@H](N)CCCCN)C(=O)N[C@@H](Cc1ccc(O)cc1)C(=O)O [compound 69] (H-KHWLRLNPGQPMY-OH; N-terminus and C-terminus assumed) | 100% | 100% | <90% | 95.74% | <90% |
| CSCC[C@H](NC(=O)[C@@H]1CCCN1C(=O)[C@H](CCC(N)=O)NC(=O)CNC(=O)[C@H](CCCNC(=N)N)NC(=O)[C@H](CCCCN)NC(=O)[C@H](CC(C)C)NC(=O)[C@H](CCCCN)NC(=O)[C@H](CC(C)C)NC(=O)[C@H](CO)NC(=O)[C@H](Cc1c[nH]cn1)NC(=O)[C@@H](N)Cc1c[nH]c2ccccc12)C(=O)N[C@@H](Cc1ccc(O)cc1)C(=O)O [compound 56] (H-WHSLKLKRGQPMY-OH; N-terminus and C-terminus assumed) | 100% | 100% | <90% | 99.84% | <90% |
| CC[C@H](C)[C@H](NC(=O)[C@H](Cc1c[nH]c2ccccc12)NC(=O)[C@H](CCC(=O)O)NC(=O)[C@@H]1CCCN1)C(=O)N[C@@H](CCC(N)=O)C(=O)N[C@@H](CC(C)C)C(=O)N[C@@H](CCCCN)C(=O)N[C@H](C(=O)NCC(=O)N[C@@H](CCSC)C(=O)N1CCC[C@H]1C(=O)N[C@@H](CCSC)C(=O)N[C@@H](Cc1ccc(O)cc1)C(=O)O)[C@@H](C)O [compound 40] (H-PEWIQLKTGMPMY-OH; N-terminus and C-terminus assumed) | <90% | <90% | – | – | – |
| CSCC[C@H](NC(=O)[C@@H]1CCCN1C(=O)[C@H](C)NC(=O)CNC(=O)[C@@H]1CCCN1C(=O)[C@H](CCCNC(=N)N)NC(=O)[C@H](Cc1ccccc1)NC(=O)[C@H](CCC(N)=O)NC(=O)[C@@H](NC(=O)[C@H](Cc1c[nH]c2ccccc12)NC(=O)[C@H](Cc1c[nH]cn1)NC(=O)[C@@H](N)Cc1c[nH]c2ccccc12)C(C)C)C(=O)N[C@@H](Cc1ccc(O)cc1)C(=O)O [compound 97] (H-WHWVQFRPGAPMY-OH; N-terminus and C-terminus assumed) | 95.75% | 100% | <90% | <90% | – |
| CSCC[C@H](NC(=O)[C@@H]1CCCN1C(=O)[C@H](CCC(N)=O)NC(=O)CNC(=O)[C@@H]1CCCN1C(=O)[C@H](CCCCN)NC(=O)[C@H](CC(C)C)NC(=O)[C@H](CO)NC(=O)[C@@H](NC(=O)[C@H](Cc1c[nH]c2ccccc12)NC(=O)[C@H](Cc1c[nH]cn1)NC(=O)[C@@H]1CCCN1)C(C)C)C(=O)N[C@@H](Cc1ccc(O)cc1)C(=O)O [compound 160] (H-PHWVSLKPGQPMY-OH; N-terminus and C-terminus assumed) | <90% | <90% | – | – | – |
| CSCC[C@H](NC(=O)[C@@H]1CCCN1C(=O)[C@H](CCC(=O)O)NC(=O)CNC(=O)[C@@H]1CCCN1C(=O)[C@H](CCCCN)NC(=O)[C@H](Cc1ccccc1)NC(=O)[C@H](CCC(N)=O)NC(=O)[C@H](CC(C)C)NC(=O)[C@@H](NC(=O)[C@H](Cc1c[nH]cn1)NC(=O)[C@@H](N)CCCCN)C(C)C)C(=O)N[C@@H](Cc1ccc(O)cc1)C(=O)O [compound 38] (H-KHVLQFKPGEPMY-OH; N-terminus and C-terminus assumed) | <90% | <90% | – | – | – |
| CSCC[C@H](NC(=O)[C@@H]1CCCN1C(=O)[C@H](CCC(N)=O)NC(=O)CNC(=O)[C@@H]1CCCN1C(=O)[C@H](CCCCN)NC(=O)[C@H](Cc1ccccc1)NC(=O)[C@H](CCCNC(=N)N)NC(=O)[C@H](CC(C)C)NC(=O)[C@@H](NC(=O)[C@H](Cc1c[nH]cn1)NC(=O)[C@@H](N)Cc1c[nH]c2ccccc12)[C@@H](C)O)C(=O)N[C@@H](Cc1ccc(O)cc1)C(=O)O [compound 92] (H-WHTLRFKPGQPMY-OH; N-terminus and C-terminus assumed) | 98.44% | 98.95% | <90% | <90% | – |
| CSCC[C@H](NC(=O)[C@@H]1CCCN1C(=O)[C@H](CO)NC(=O)CNC(=O)[C@H](CCCNC(=N)N)NC(=O)[C@H](CCCCN)NC(=O)[C@H](CC(C)C)NC(=O)[C@H](CC(N)=O)NC(=O)[C@@H](NC(=O)[C@H](CC(=O)O)NC(=O)[C@H](Cc1c[nH]cn1)NC(=O)[C@@H](N)Cc1c[nH]c2ccccc12)C(C)C)C(=O)N[C@@H](Cc1ccc(O)cc1)C(=O)O [compound 176] (H-WHDVNLKRGSPMY-OH; N-terminus and C-terminus assumed) | <90% | <90% | – | – | – |
| CSCC[C@H](NC(=O)[C@@H]1CCCN1C(=O)[C@H](CCC(N)=O)NC(=O)CNC(=O)[C@@H]1CCCN1C(=O)[C@H](CCCCN)NC(=O)[C@H](CC(C)C)NC(=O)[C@H](CCCNC(=N)N)NC(=O)[C@H](CC(C)C)NC(=O)[C@@H](NC(=O)[C@H](Cc1c[nH]cn1)NC(=O)[C@@H](N)CCCCN)[C@@H](C)O)C(=O)N[C@@H](Cc1ccc(O)cc1)C(=O)O [compound 83] (H-KHTLRLKPGQPMY-OH; N-terminus and C-terminus assumed) | 100% | 100% | <90% | 99.92% | <90% |
